Measurements published in patent US5451601A, “Perhydroisoindole derivatives and pharmaceutical compositions containing them” (Rhone-Poulenc Rorer S.A., priority 1991, dated 1995).

How the values were obtained:
Type in all cases: in vivo
substance P = experiment: antagonism of the hypotension induced by substance P, technique of C. A. Maggi et al.; settings: rats; product 1 mg/kg i.v./min for 5 min; hypotension induced by i.v. injection of substance P
Source text: Injection of substance P into animals produces hypotension. The products studied in the technique of C. A. Maggi et al., J. Auton.

[1] = tested on: septide (agonist of substance P); experiment: inhibition of the increase in capillary permeability brought about by septide, technique of A. Saria et al. adapted to mice; settings: Mus musculus, sc, septide-induced increase in capillary permeability
Source text: The study of a number of isoindole derivatives of general formula (I) according to the technique of A. Saria et al., Arch.

[2] = analgesic activity, technique of Siegmund E. et al.; settings: po
Source text: Exp. Biol. Med., 95, 729 (1957).

Compound | % inhibition of hypotension (substance P) [%] | ED50 [1] [mg/kg] | ED50 [2] [mg/kg]
CN(C)CCCOc1ccccc1CC(=O)N1C[C@@H]2[C@H](F)CCC(c3ccccc3)(c3ccccc3)[C@@H]2C1.Cl [Example 1, (3aR,7R,7aR)-2-{[2-(3-dimethylaminopropoxy)phenyl]acetyl}-4,4-diphenyl-7-fluoroperhydroisoindole hydrochloride] | 73 | 0.7 | 3
O=C(Cc1ccccc1OCCCN1CCCC1)N1C[C@@H]2[C@H](F)CCC(c3ccccc3)(c3ccccc3)[C@@H]2C1 [Example 2] | 68 | 0.3 | 2
COc1ccccc1[C@H](C)C(=O)N1C[C@@H]2[C@H](F)CCC(c3ccccc3)(c3ccccc3)[C@@H]2C1 [Example 7, (3aR,7R,7aR)-4,4-diphenyl-7-fluoro-2-[(S)-2-(2-methoxyphenyl)propionyl]perhydroisoindole] | – | 0.32 | 1.5
